We go through 6 compounds from article PMC11125018 (Pharmaceuticals, 2024).

Broadly, the EC50 is the concentration needed to bring the measured effect to its halfway point. By pEC50 is commonly meant the negative decadic logarithm of the EC50, by convention in mol/L. For orientation: pIC50 means the negative decadic logarithm of the IC50, by convention in mol/L. One may read the IC50 as the midpoint of a concentration-inhibition curve. High values mean weaker potency, low ones greater potency. One may read the Emax as the size of the effect at its maximum, as opposed to the concentration needed.

pEC50, pIC50: −log10 of the molar value. Values joined by “and” are separate entries in the source; they are usually repeats but may differ in a detail not shown here. Equal entries are not always repeated. Where two headings read alike, the source gives them in different places.

One assay has as its system CB2 receptor. The following applies: in vitro studies; cited from earlier work.
Assay [1] deals with T1, CB1 receptor (Homo sapiens, UniProt P21554).
T1 construct: host or cells: CHO-K1
The assay can be described thus: PathHunter β-arrestin recruitment assay, agonist mode, CB1 expressing CHO-K1 cell line. The format is cell-based. The following applies: for EC50: EC50 (nM), agonist effect, 90 min incubation, parentheses = SD of three independent measurements; for Hill Slope: four-parameter log-logistic fit, three measurements; for Hill Slope / Maximum RE (%): parentheses = SD; for Maximum RE (%): 100% normalized to maximum (±)-CP 55,940 stimulation, 0% to vehicle; for classification as partial agonist of the CB1 cannabinoid receptor: relative to full agonist CP 55940; for agonist property: tested up to 5 µM. How it is done:
(§1) For agonist and antagonist assays, PathHunter® CHO-K1 CNR1 (Eurofins DiscoverX, Fremont, CA, USA, Catalog number: 93-0959C2) β-Arrestin cells were expanded from freezer stocks according to standard procedures provided by Eurofins. The cell line manual was followed for cell growth (including cell culture media and supplementation, the handling and preparation of cells, etc.), test procedure, and signal detection. Cells were seeded in a total volume of 20 µL (5000 cells) into white-walled, 384-well microplates and incubated at 37 °C overnight prior to testing. After preparing stock acetonitrile solution at 1 mg/mL concentration of ligand, compound intermediate concentrations were achieved by a 10-point series of 3-fold compound serial dilutions in a compound dilution buffer in a separate dilution plate.
For the agonist assay, the concentration of each dilution was prepared at 5X of the final screening concentration. An amount of 5 µL of samples was added to cells (highest final concentration = 5 µM, maximum acetonitrile = 0.2 v/v%) and incubated at 37 °C for 90 min (5% CO2). To generate the assay signal, 12.5 µL of working detection solution was added to the cells, which were then left to incubate for an hour at room temperature in the dark. The signal detection was carried out using a PerkinElmer Envision instrument to measure chemiluminescence.
In general terms: Recruitment of arrestin is a read-out of receptor activation apart from second messengers.

The subject of a further assay is CB1. The following applies: cAMP assay, cited from earlier work; for pEC50: read-out: agonist EC50. On the technique in general: cAMP levels reflect the balance of adenylyl cyclase and phosphodiesterase activity.
Assay [2] addresses T1, CB1 receptor. The assay can be described thus: cell-based. Format: cell-based. The following applies: for Hill Slope / Maximum RE (%): antagonist mode, parentheses = SD; for Hill Slope: four-parameter log-logistic fit, three measurements; for Maximum RE (%): 100% normalized to maximum AM-281, 0% to vehicle; for IC50: IC50 (nM). How it is done:
as §1
For antagonist determination, cells were pre-incubated with THCV isomers, followed by agonist challenge at the EC80 concentration. Each THCV dilution was prepared at a 10X concentration relative to the intended final concentrations for screening. An amount of 2.5 µL of these samples were introduced into the cells, achieving a maximum final concentration of 5 µM for THCV and ~0.2 v/v% for acetonitrile. The assay plate was incubated at 37 °C for 30 min in an atmosphere containing 5% CO2. […] Cells were incubated for 90 min at 37 °C and 5% CO2. To generate the assay signal, 12.5 µL of working detection solution was added to the cells, which were then left to incubate for an hour at room temperature in the dark. The signal detection was carried out using a PerkinElmer Envision (Waltham, MA, USA) instrument to measure chemiluminescence.

T1 sequence (P21554 whole entry): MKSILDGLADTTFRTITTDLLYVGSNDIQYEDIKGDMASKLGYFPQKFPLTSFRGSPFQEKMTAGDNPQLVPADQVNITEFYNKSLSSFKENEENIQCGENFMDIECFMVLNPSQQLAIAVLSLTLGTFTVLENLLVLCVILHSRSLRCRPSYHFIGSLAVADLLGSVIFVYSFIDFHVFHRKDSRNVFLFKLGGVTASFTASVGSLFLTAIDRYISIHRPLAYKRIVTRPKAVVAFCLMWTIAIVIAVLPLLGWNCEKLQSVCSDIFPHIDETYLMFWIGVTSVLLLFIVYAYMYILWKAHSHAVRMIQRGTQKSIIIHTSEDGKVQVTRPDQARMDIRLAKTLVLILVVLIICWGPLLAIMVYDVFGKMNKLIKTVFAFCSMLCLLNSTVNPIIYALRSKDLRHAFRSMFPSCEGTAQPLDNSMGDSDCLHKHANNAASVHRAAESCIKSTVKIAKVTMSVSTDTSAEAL

As to `CCCCCc1cc(O)c2c(c1)OC(C)(C)[C@@H]1CC[C@@H](C)C[C@@H]21` [9R-HHC, hexahydrocannabinol], the CB2 selectivity in the assay with CB2 receptor is 1.2 times. At CB1 receptor [1], the EC50 was 53.4 nM and 53.5 nM; the “classification as partial agonist of the CB1 cannabinoid receptor” value is “moderate”. For the same compound, at CB1 receptor [1] (agonist mode), the “Hill Slope” value is reported as 0.56 (0.07); the “Maximum RE (%)” value is 41.51% and 41.51 (1.70) %. Moreover, in the assay on CB1, the “fold higher agonist potency than 9S-HHC” value is recorded as “approximately 16 fold” and the pEC50 was 8.47.
With `CCCCCc1cc(O)c2c(c1)OC(C)(C)[C@@H]1CC[C@H](C)C[C@@H]21` [9S-HHC, hexahydrocannabinol], the CB2 selectivity in the assay on CB2 receptor is recorded as 1.7 times. On CB1 receptor [1], the EC50 was 624 nM and the “classification as partial agonist of the CB1 cannabinoid receptor” value is listed as “weak”. Moreover, at CB1 receptor [1] (agonist mode), the “Hill Slope” value is on record as 0.95 (0.08); the “Maximum RE (%)” value is 20.58% and 20.58 (0.80) %. Moreover, the pEC50 in the assay with CB1 is 7.24.
Turning to `Cc1c(C(=O)NN2CCOCC2)nn(-c2ccc(Cl)cc2Cl)c1-c1ccc(I)cc1` [AM-281, reference compound], on CB1 receptor [2], the “Hill Slope” value is 0.81 (0.07) and the “Maximum RE (%)” value is recorded as 101.90 (1.63) %. Moreover, the pIC50 at CB1 receptor [2] (read-out: IC50) was 7.75.
For `CCCCCCC(C)(C)c1ccc([C@@H]2C[C@H](O)CC[C@H]2CCCO)c(O)c1` [CP 55940, reference compound], on CB1 receptor [1] (agonist mode), the “Hill Slope” value was 0.90 (0.10) and the “Maximum RE (%)” value is reported as 105.50 (3.34) %.
Consider `CCCc1cc(O)c2c(c1)OC(C)(C)[C@@H]1CC=C(C)C[C@@H]21` [∆8-THCV, tetrahydrocannabivarin], for which the agonist property entry at CB1 receptor [1] (agonist mode) was “failed to show any significant agonist property”. Besides, at CB1 receptor [2], the IC50 came out at 120 nM, the “Hill Slope” value is reported as 1.37 (0.09) and the “Maximum RE (%)” value is reported as 97.40 (1.16) %.
Compound `CCCc1cc(O)c2c(c1)OC(C)(C)[C@@H]1CCC(C)=C[C@@H]21` [∆9-THCV, tetrahydrocannabivarin] returned an Emax on CB1 receptor [1] (CHO-K1, agonist mode, up to 5 µM, insignificant increase from baseline) of 1.19%. Further, the agonist property entry on CB1 receptor [1] (agonist mode) is “failed to show any significant agonist property”. At CB1 receptor [2], the “fold less potent antagonist than AM-281” value is given as ~ 3 ×, the “fold less potent antagonist than rimonabant” value is ~ 45 ×, the IC50 is 52.4 nM and the “Hill Slope” value was 1.38 (0.18). Further, the “Maximum RE (%)” value on CB1 receptor [2] is reported as 96.46 (2.20) %.
